Assay results: PMC6639057 (Investigational new drugs, 2018)
Where “and” joins values, the source holds several entries; their conditions need not be identical. Equal values may be shown once.

Test system: patients with advanced solid tumors
Assay: Adverse events
[1] = all patients, dose escalation and dose expansion (N = 105)
[2] = escalation 30 mg + G-CSF (n = 6)
[3] = escalation 35 mg + G-CSF (n = 3)

## Cc1csc(-c2nnc(Nc3ccc(Oc4ncccc4-c4ccnc(N)n4)cc3)c3ccccc23)c1 [AMG 900]
Total (N = 105)
  AEs leading to discontinuation of AMG 900: 25 (24) n (%)
  All treatment-emergent AEs: 105 (100) n (%)
  All treatment-related AEs: 98 (93) n (%)
  Fatal AEs: 5 (5) n (%)
  Grade ≥ 3 AEs: 79 (75) n (%)
  Grade ≥ 3 treatment-related AEs: 61 (58) n (%)
  Grade ≥ 3 treatment-related AEs: Anemia: 24 (23) n (%)
  Grade ≥ 3 treatment-related AEs: Diarrhea: 4 (4) n (%)
  Grade ≥ 3 treatment-related AEs: Fatigue: 5 (5) n (%)
  Grade ≥ 3 treatment-related AEs: Febrile neutropenia: 10 (10) n (%)
  Grade ≥ 3 treatment-related AEs: Hemoglobin decreased: 4 (4) n (%)
  Grade ≥ 3 treatment-related AEs: Leukopenia: 15 (14) n (%)
  Grade ≥ 3 treatment-related AEs: Lymphopenia: 4 (4) n (%)
  Grade ≥ 3 treatment-related AEs: Nausea: 3 (3) n (%)
  Grade ≥ 3 treatment-related AEs: Neutropenia: 44 (42) n (%)
  Grade ≥ 3 treatment-related AEs: Thrombocytopenia: 13 (12) n (%)
  Grade ≥ 3 treatment-related AEs: Vomiting: 2 (2) n (%)
  Grade ≥ 3 treatment-related AEs: White blood cell count decreased: 2 (2) n (%)
  Grade ≥ 4 AEs: 40 (38) n (%)
  Serious AEs: 39 (37) n (%)
All patients (13 patients)
  Treatment-related AEs that led to discontinuation of AMG 900: 12%
All patients (31 patients)
  Treatment-related grade ≥ 4 AEs: 30%
All patients (47 patients)
  Dose reductions or interruptions due to AEs: 45%
All patients (51 patients)
  Dose reductions or interruptions: 49%
All patients (61 patients)
  Treatment-related grade ≥ 3 AEs: 58%
All patients (five patients)
  Fatal AEs: 5%
All patients (n = 1)
  Grade ≥ 4 diarrhea (only nonhematologic grade ≥ 4 AE): 1%
All patients (n = 12)
  Treatment-related grade ≥ 4 leukopenia: 11%
All patients (n = 25), data cutoff December 31, 2014
  Discontinuation of AMG 900 due to AEs: 24%
All patients (n = 30)
  Treatment-related grade ≥ 4 neutropenia: 29%
[1]
  Grade ≥ 3 treatment-related anemia: 23%
  Grade ≥ 3 treatment-related leukopenia: 14%
  Grade ≥ 3 treatment-related neutropenia: 37% and 42%
  Grade ≥ 3 treatment-related thrombocytopenia: 12%
As judged by the investigator
  Relation of fatal AEs to treatment: none of the fatal AEs were considered treatment related
Escalation 16 mg (n = 3)
  AEs leading to discontinuation of AMG 900: 0 n (%)
  All treatment-emergent AEs: 3 (100) n (%)
  All treatment-related AEs: 3 (100) n (%)
  Fatal AEs: 0 n (%)
  Grade ≥ 3 AEs: 1 (33) n (%)
  Grade ≥ 3 treatment-related AEs: 1 (33) n (%)
  Grade ≥ 3 treatment-related AEs: Anemia: 1 (33) n (%)
  Grade ≥ 3 treatment-related AEs: Diarrhea: 0 n (%)
  Grade ≥ 3 treatment-related AEs: Fatigue: 0 n (%)
  Grade ≥ 3 treatment-related AEs: Febrile neutropenia: 0 n (%)
  Grade ≥ 3 treatment-related AEs: Hemoglobin decreased: 0 n (%)
  Grade ≥ 3 treatment-related AEs: Leukopenia: 1 (33) n (%)
  Grade ≥ 3 treatment-related AEs: Lymphopenia: 0 n (%)
  Grade ≥ 3 treatment-related AEs: Nausea: 0 n (%)
  Grade ≥ 3 treatment-related AEs: Neutropenia: 1 (33) n (%)
  Grade ≥ 3 treatment-related AEs: Thrombocytopenia: 0 n (%)
  Grade ≥ 3 treatment-related AEs: Vomiting: 0 n (%)
  Grade ≥ 3 treatment-related AEs: White blood cell count decreased: 0 n (%)
  Grade ≥ 4 AEs: 1 (33) n (%)
  Serious AEs: 0 n (%)
Escalation 24 mg (n = 6)
  AEs leading to discontinuation of AMG 900: 1 (17) n (%)
  All treatment-emergent AEs: 6 (100) n (%)
  All treatment-related AEs: 5 (83) n (%)
  Fatal AEs: 0 n (%)
  Grade ≥ 3 AEs: 5 (83) n (%)
  Grade ≥ 3 treatment-related AEs: 5 (83) n (%)
  Grade ≥ 3 treatment-related AEs: Anemia: 0 n (%)
  Grade ≥ 3 treatment-related AEs: Diarrhea: 0 n (%)
  Grade ≥ 3 treatment-related AEs: Fatigue: 0 n (%)
  Grade ≥ 3 treatment-related AEs: Febrile neutropenia: 0 n (%)
  Grade ≥ 3 treatment-related AEs: Hemoglobin decreased: 0 n (%)
  Grade ≥ 3 treatment-related AEs: Leukopenia: 2 (33) n (%)
  Grade ≥ 3 treatment-related AEs: Lymphopenia: 1 (17) n (%)
  Grade ≥ 3 treatment-related AEs: Nausea: 0 n (%)
  Grade ≥ 3 treatment-related AEs: Neutropenia: 4 (67) n (%)
  Grade ≥ 3 treatment-related AEs: Thrombocytopenia: 0 n (%)
  Grade ≥ 3 treatment-related AEs: Vomiting: 0 n (%)
  Grade ≥ 3 treatment-related AEs: White blood cell count decreased: 0 n (%)
  Grade ≥ 4 AEs: 3 (50) n (%)
  Serious AEs: 1 (17) n (%)
Escalation 25 mg (n = 7)
  AEs leading to discontinuation of AMG 900: 2 (29) n (%)
  All treatment-emergent AEs: 7 (100) n (%)
  All treatment-related AEs: 5 (71) n (%)
  Fatal AEs: 1 (14) n (%)
  Grade ≥ 3 AEs: 3 (43) n (%)
  Grade ≥ 3 treatment-related AEs: 2 (29) n (%)
  Grade ≥ 3 treatment-related AEs: Anemia: 2 (29) n (%)
  Grade ≥ 3 treatment-related AEs: Diarrhea: 0 n (%)
  Grade ≥ 3 treatment-related AEs: Fatigue: 0 n (%)
  Grade ≥ 3 treatment-related AEs: Febrile neutropenia: 0 n (%)
  Grade ≥ 3 treatment-related AEs: Hemoglobin decreased: 1 (14) n (%)
  Grade ≥ 3 treatment-related AEs: Leukopenia: 1 (14) n (%)
  Grade ≥ 3 treatment-related AEs: Lymphopenia: 0 n (%)
  Grade ≥ 3 treatment-related AEs: Nausea: 0 n (%)
  Grade ≥ 3 treatment-related AEs: Neutropenia: 1 (14) n (%)
  Grade ≥ 3 treatment-related AEs: Thrombocytopenia: 0 n (%)
  Grade ≥ 3 treatment-related AEs: Vomiting: 0 n (%)
  Grade ≥ 3 treatment-related AEs: White blood cell count decreased: 0 n (%)
  Grade ≥ 4 AEs: 2 (29) n (%)
  Serious AEs: 1 (14) n (%)
Escalation 30 mg (n = 6)
  AEs leading to discontinuation of AMG 900: 4 (67) n (%)
  All treatment-emergent AEs: 6 (100) n (%)
  All treatment-related AEs: 6 (100) n (%)
  Fatal AEs: 0 n (%)
  Grade ≥ 3 AEs: 6 (100) n (%)
  Grade ≥ 3 treatment-related AEs: 4 (67) n (%)
  Grade ≥ 3 treatment-related AEs: Anemia: 0 n (%)
  Grade ≥ 3 treatment-related AEs: Diarrhea: 0 n (%)
  Grade ≥ 3 treatment-related AEs: Fatigue: 0 n (%)
  Grade ≥ 3 treatment-related AEs: Febrile neutropenia: 0 n (%)
  Grade ≥ 3 treatment-related AEs: Hemoglobin decreased: 0 n (%)
  Grade ≥ 3 treatment-related AEs: Leukopenia: 3 (50) n (%)
  Grade ≥ 3 treatment-related AEs: Lymphopenia: 0 n (%)
  Grade ≥ 3 treatment-related AEs: Nausea: 0 n (%)
  Grade ≥ 3 treatment-related AEs: Neutropenia: 4 (67) n (%)
  Grade ≥ 3 treatment-related AEs: Thrombocytopenia: 1 (17) n (%)
  Grade ≥ 3 treatment-related AEs: Vomiting: 0 n (%)
  Grade ≥ 3 treatment-related AEs: White blood cell count decreased: 0 n (%)
  Grade ≥ 4 AEs: 6 (100) n (%)
  Serious AEs: 3 (50) n (%)
[2]
  AEs leading to discontinuation of AMG 900: 1 (17) n (%)
  All treatment-emergent AEs: 6 (100) n (%)
  All treatment-related AEs: 6 (100) n (%)
  Fatal AEs: 0 n (%)
  Grade ≥ 3 AEs: 5 (83) n (%)
  Grade ≥ 3 treatment-related AEs: 3 (50) n (%)
  Grade ≥ 3 treatment-related AEs: Anemia: 1 (17) n (%)
  Grade ≥ 3 treatment-related AEs: Diarrhea: 0 n (%)
  Grade ≥ 3 treatment-related AEs: Fatigue: 0 n (%)
  Grade ≥ 3 treatment-related AEs: Febrile neutropenia: 0 n (%)
  Grade ≥ 3 treatment-related AEs: Hemoglobin decreased: 0 n (%)
  Grade ≥ 3 treatment-related AEs: Leukopenia: 2 (33) n (%)
  Grade ≥ 3 treatment-related AEs: Lymphopenia: 0 n (%)
  Grade ≥ 3 treatment-related AEs: Nausea: 0 n (%)
  Grade ≥ 3 treatment-related AEs: Neutropenia: 3 (50) n (%)
  Grade ≥ 3 treatment-related AEs: Thrombocytopenia: 2 (33) n (%)
  Grade ≥ 3 treatment-related AEs: Vomiting: 0 n (%)
  Grade ≥ 3 treatment-related AEs: White blood cell count decreased: 0 n (%)
  Grade ≥ 4 AEs: 2 (33) n (%)
  Serious AEs: 3 (50) n (%)
[3]
  AEs leading to discontinuation of AMG 900: 0 n (%)
  All treatment-emergent AEs: 3 (100) n (%)
